Results taken from US20200353027A1, “A LILAC GINKGO BRICK TEA WITH LIPID LOWERING AND LIVER PROTECTION ACTIVITIES AND A METHOD OF PREPARING THE SAME” (SHAANXI UNIVERSITY OF SCIENCE AND TECHNOLOGY, priority 2019, published 2020).

System: mice given ethanol alcohol (alcohol's damage to the liver)
Assay: Liver protection in mice given ethanol alcohol
Type: in vivo, Kunming mice
Details: Tiopronin 50 mg/kg/day, ethanol 3 g/kg/day, after 25 days, blood
Description: To study the liver protection effect of the Lilac Ginkgo Brick Tea of Example 1, the following experiments were conduct.
Male Kunming mice, 50 SPF grades, 5 weeks old, 30-35 g, were randomly divided into Blank Group, Control Group, Tiopronin Positive Control Group, Low Dosage Group, and High Dosage Group. 100 g of Lilac Ginkgo Brick Tea was boiled in 1 L water, filtered, and concentrated to 50 mL concentrated Lilac Ginkgo Brick Tea solution. Blank Group and Control Group were given water and regular food; Tiopronin Group was given 50 mg/kg/day Tiopronin; and Low Dosage Group and High Dosage Group were given 20 mL/kg/day and 50 mL/kg/day concentrated Lilac Ginkgo Brick Tea solution, respectively, and regular food. Control Group, Tiopronin Positive Control Group, Low Dosage Group, and High Dosage Group were given 3 g/kg/day (0.01 mL/g) ethanol alcohol. Blank Group was given equal volume water. After 25 days, the mice were fasted for 2 hours, and blood samples were taken to determine alanine aminotransferase (ALT), aspartate aminotransferase (AST), and triglyceride (TG) levels.

Q: For `CC(S)C(=O)NCC(=O)O` (stereo not drawn) [Tiopronin], which “ALT (alanine aminotransferase)” value is on record?
A: 64.80 ± 10.47 U/L

Q: And the “AST (aspartate aminotransferase)” value?
A: 140.39 ± 20.92 U/L

Q: What about the “TG (triglyceride)” value of the same compound?
A: 1.295 ± 0.43 mmol/L
